Measurements: PMC6461236, “The three dimensional structure of Bovine Salivary Protein 30b (BSP30b) and its interaction with specific rumen bacteria” (PLoS ONE, 2019)

Biological target: T1, BSP30b (Bovine Salivary Protein 30b) (Bos taurus, UniProt P79125)
T1 construct: gene SPLUNC2B; E. coli BL21, pProEx Htb (BamHI/XhoI), HiTrap Ni, MONO Q and SEC purified; synthetic F61M/F115M double mutant; model covers about residues 40-235
T1 sequence (P79125 20-240): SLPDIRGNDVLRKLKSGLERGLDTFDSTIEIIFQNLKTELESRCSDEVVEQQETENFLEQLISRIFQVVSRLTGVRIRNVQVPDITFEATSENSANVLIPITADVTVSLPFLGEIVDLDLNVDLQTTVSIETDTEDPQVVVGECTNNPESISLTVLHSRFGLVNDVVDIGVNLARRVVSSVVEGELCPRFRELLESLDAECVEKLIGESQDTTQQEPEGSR
Test: X-ray co-crystal structure, […] Å
Format: binding
Settings: co-crystallised at pH 7.5 after SEC removal of unbound ligand; in hydrophobic channel, about 80% occupancy in dominant site, weaker in second molecule of ASU; contacts ASP112 and ILE113

## CCCCCCCC/C=C\CCCCCCCC(=O)O [oleic acid]
  X-ray co-crystal structure, 2.30 Å: The only structure that revealed elongated stretches of electron density within the hydrophobic tunnel
